Values of other authors in patent publication US20040057977A1, “Water-based pest bait compositions having water-sensitive insecticides and methods of making and use thereof” (priority 1999, published 2004).

Assays:
cockroaches = conditions: in vivo
[1] = in vivo

| Compound | time to kill cockroaches (cockroaches) | eye and lung irritation [1] |
| --- | --- | --- |
| COP(=O)(NC(C)=O)SC (stereo not drawn) [Acephate, O,S-dimethyl acetylphosphoramidothioate] | within about two hours | – |
| OB(O)O [boric acid] | roughly one week | slight eye and lung irritation |
